Test results reported in patent US10717749B2, “Macrocyclic sulfondiimine compounds” (BAYER PHARMA AKTIENGESELLSCHAFT, priority 2015, dated 2020).
Where two headings read alike, the source gives them in different places. Marks after values point to notes of the source that are not given here.

Key:
[1] = target: T1, human PTEFb (CDK9/Cyclin T1) (Homo sapiens, UniProt P50750); assay: Surface Plasmon Resonance PTEFb; format: binding; conditions: for Target resident time: 1/koff; for koff: read-out: Dissociation rate constant koff
T1 construct: purchased ProQinase, Freiburg, Germany
Text: 8. Surface Plasmon Resonance PTEFb
The ability of the compounds according to the invention to bind human PTEFb may be determined using surface plasmon resonance (SPR). KD values and koff values may be measured using a Biacoret T200 instrument (GE Healthcare, Uppsala, Sweden).
For SPR measurements, recombinant human PTEFb (CDK9/Cyclin T1 recombinant human active protein kinase purchased from ProQinase, Freiburg, Germany) is immobilized using standard amine coupling (Johnsson B et al, Anal Biochem. 1991 Nov. 1; 198(2):268-77). Briefly, carboxymethylated dextran biosensor chips (CM7, GE Healthcare) are activated with N-ethyl-N′-(3-dimethylaminopropyl)-carbodiimide hydrochloride (EDC) and N-hydroxysuccinimide (NHS) according to the supplier's instructions. Human PTEFb is diluted in 1×HBS-EP+(GE Healthcare) into 30 μg/ml and injected on the activated chip surface. Subsequently, a 1:1 solution of 1 M ethanolamine-HCl (GE Healthcare) and 1×HBS-EP is injected to block unreacted groups, resulting in approximately 4000 response units (RU) of immobilized protein. A reference surface is generated by treatment with NHS-EDC and ethanolamine-HCl. Compounds are dissolved in 100% dimethylsulfoxide (DMSO, Sigma-Aldrich, Germany) to a concentration of 10 mM and subsequently diluted in running buffer (1×HBS-EP+pH 7.4 [generated from HBS-EP+Buffer 10×(GE Healthcare): 0.1 M HEPES, 1.5 M NaCl, 30 mM EDTA and 0.5% v/v Surfactant P20], 1% v/v DMSO). For kinetic measurements, four-fold serial dilutions of compound (0.39 nM to 100 nM) are injected over immobilized protein. […] Compound concentrations are injected for 60 s followed by a dissociation time of 1800 s. The resulting sensorgrams are double-referenced against the reference surface as well as against blank injections.
The double-referenced sensorgrams are fit to a simple reversible Langmuir 1:1 reaction mechanism as implemented in the Biacore® T200 evaluation software 2.0 (GE Healthcare). In cases were full compound dissociation has not occurred at the end of the dissociation phase, the Rmax parameter (response at saturation) is fit as local variable. In all other cases, Rmax is fit as global variable.

[2] = target: T2, CDK9/CycT1 (Homo sapiens, UniProt P50750); assay: CDK9/CycT1 high ATP kinase assay (Method 1b, TR-FRET, 2 mM ATP); format: biochemical; conditions: for IC50: Method 1b, 2 mM ATP; for Selectivity high ATP CDK9 over high ATP CDK2: IC50 (high ATP CDK2)/IC50 (high ATP CDK9): Methods 1b and 2b, minimal values
T2 construct: Recombinant full-length His-tagged human CDK9 and CycT1; His; purchased Invitrogen PV4131; host or cells: insect cells
Method: 1b. CDK9/CycT1 High ATP Kinase Assay
CDK9/CycT1-inhibitory activity of compounds of the present invention at a high ATP concentration after preincubation of enzyme and test compounds was quantified employing the CDK9/CycT1 TR-FRET assay as described in the following paragraphs.
Recombinant full-length His-tagged human CDK9 and CycT1, expressed in insect cells and purified by Ni-NTA affinity chromatography, were purchase from Invitrogen (Cat. No PV4131). As substrate for the kinase reaction biotinylated peptide biotin-Ttds-YISPLKSPYKISEG (C-terminus in amid form) was used which can be purchased e.g. from the company JERINI peptide technologies (Berlin, Germany). For the assay 50 nl of a 100 fold concentrated solution of the test compound in DMSO was pipetted into a black low volume 384 well microtiter plate (Greiner Bio-One, Frickenhausen, Germany), 2 μl of a solution of CDK9/CycT1 in aqueous assay buffer [50 mM Tris/HCl pH 8.0, 10 mM MgCl2, 1.0 mM dithiothreitol, 0.1 mM sodium ortho-vanadate, 0.010% (v/v) Nonidet-P40 (Sigma)] were added and the mixture was incubated for 15 min at 22° C. to allow pre-binding of the test compounds to the enzyme before the start of the kinase reaction. Then the kinase reaction was started by the addition of 3 μl of a solution of adenosine-tri-phosphate (ATP, 3.3 mM=> final conec. in the 5 μl assay volume is 2 mM) and substrate (1.67 μM=> final conc. in the 5 μl assay volume is 1 μM) in assay buffer and the resulting mixture was incubated for a reaction time of 25 min at 22° C. The concentration of CDK9/CycT1 was adjusted depending of the activity of the enzyme lot and was chosen appropriate to have the assay in the linear range, typical concentrations were in the range of 0.5 μg/mL. The reaction was stopped by the addition of 5 μl of a solution of TR-FRET detection reagents (0.2 μM streptavidine-XL665 [Cisbio Bioassays, Codolet, France] and 1 nM anti-RB(pSer807/pSer811)-antibody from BD Pharmingen [#558389] and 1.2 nM LANCE EU-W1024 labeled anti-mouse IgG antibody [Perkin-Elmer, product no. AD0077]) in an aqueous EDTA-solution (100 mM EDTA, 0.2% (w/v) bovine serum albumin in 100 mM HEPES pH 7.5).
The resulting mixture was incubated 1 h at 22° C. to allow the formation of complex between the phosphorylated biotinylated peptide and the detection reagents. Subsequently the amount of phosphorylated substrate was evaluated by measurement of the resonance energy transfer from the Eu-chelate to the streptavidine-XL. Therefore, the fluorescence emissions at 620 nm and 665 nm after excitation at 350 nm was measured in a HTRF reader, e.g. a Rubystar (BMG Labtechnologies, Offenburg, Germany) or a Viewlux (Perkin-Elmer). The ratio of the emissions at 665 nm and at […] was taken as the measure for the amount of phosphorylated substrate. The data were normalised (enzyme reaction without inhibitor=0% inhibition, all other assay components but no enzyme=100% inhibition).

T2 sequence (P50750 whole entry): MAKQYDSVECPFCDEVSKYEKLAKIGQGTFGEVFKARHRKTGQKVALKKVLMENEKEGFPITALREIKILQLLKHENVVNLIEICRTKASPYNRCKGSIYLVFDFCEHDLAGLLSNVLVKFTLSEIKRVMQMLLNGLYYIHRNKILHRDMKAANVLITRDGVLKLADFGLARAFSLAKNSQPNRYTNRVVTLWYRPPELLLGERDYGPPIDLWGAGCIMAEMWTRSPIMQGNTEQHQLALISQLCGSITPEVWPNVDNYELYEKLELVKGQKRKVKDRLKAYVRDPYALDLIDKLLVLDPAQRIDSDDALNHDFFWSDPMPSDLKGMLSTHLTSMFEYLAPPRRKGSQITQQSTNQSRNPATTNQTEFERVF
T2 sequence (O60563 whole entry partner): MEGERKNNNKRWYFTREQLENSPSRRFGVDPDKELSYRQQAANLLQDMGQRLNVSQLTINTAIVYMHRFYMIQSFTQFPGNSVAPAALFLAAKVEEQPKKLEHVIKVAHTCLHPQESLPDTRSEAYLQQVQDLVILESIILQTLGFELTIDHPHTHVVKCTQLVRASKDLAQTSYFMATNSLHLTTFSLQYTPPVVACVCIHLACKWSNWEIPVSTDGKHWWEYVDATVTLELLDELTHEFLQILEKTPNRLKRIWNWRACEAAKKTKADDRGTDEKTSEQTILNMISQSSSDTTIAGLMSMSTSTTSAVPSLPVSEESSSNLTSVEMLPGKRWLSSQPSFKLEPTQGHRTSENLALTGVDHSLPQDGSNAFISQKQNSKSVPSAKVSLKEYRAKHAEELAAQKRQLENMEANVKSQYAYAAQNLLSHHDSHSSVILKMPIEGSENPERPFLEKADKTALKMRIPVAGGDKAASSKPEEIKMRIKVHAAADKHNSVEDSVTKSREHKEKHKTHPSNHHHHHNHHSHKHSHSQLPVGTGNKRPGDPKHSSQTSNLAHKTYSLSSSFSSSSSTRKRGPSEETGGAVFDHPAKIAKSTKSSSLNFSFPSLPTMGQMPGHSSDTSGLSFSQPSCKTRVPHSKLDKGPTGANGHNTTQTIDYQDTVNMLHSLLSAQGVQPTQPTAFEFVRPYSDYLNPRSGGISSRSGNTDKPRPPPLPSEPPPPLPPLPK
T1 sequence (P50750 whole entry): as the sequence (P50750 whole entry) above
T1 sequence (O60563 whole entry partner): as the sequence (O60563 whole entry partner) above

| Structure (SMILES) | Target resident time ([1]; 25° C., Parameters B) | koff ([1]; 25° C., Parameters B) [s⁻¹] | Target resident time ([1]; 25° C., Parameters C) [min] | koff ([1]; 25° C., Parameters C) [s⁻¹] | IC50 [2] [nM] | Selectivity high ATP CDK9 over high ATP CDK2: IC50 (high ATP CDK2)/IC50 (high ATP CDK9) [2] | other results |
| --- | --- | --- | --- | --- | --- | --- | --- |
| CS(=N)(Cc1cc2nc(c1)OCCCOc1cc(F)ccc1-c1cc(ncc1F)N2)=NCCCO (racemic) [Example 2, (rac)-3-(2-{[15,19-difluoro-3,4-dihydro-2H,11H-10,6-(azeno)-12,16-(metheno)-1,5,11,13-benzodioxadiazacyclooctadecin-8-yl]methyl}-2-methyl-2λ^6-diazathia-1,2-dien-1-yl)propan-1-ol] | > 666 min | < 2.5e-05 | > 333 | < 5e-05 | 2 | 123 |  |
| CS(=N)(Cc1cc2nc(c1)OCCCOc1cc(F)ccc1-c1cc(ncc1F)N2)=NC#N (racemic) [Example 3, (rac)-[{[15,19-difluoro-3,4-dihydro-2H,11H-10,6-(azeno)-12,16-(metheno)-1,5,11,13-benzodioxadiazacyclooctadecin-8-yl]methyl}(imino)methyl-λ^6-sulfanylidene]cyanamide] | > 666 min | < 2.5e-05 | > 333 | < 5e-05 | 1.7 | 36.7 |  |
| CN=S(C)(=N)Cc1cc2nc(c1)OCCCOc1cc(F)ccc1-c1cc(ncc1F)N2 (racemic) [Example 4, (rac)-8-[(N,S-dimethylsulfonodiimidoyl)methyl]-15,19-difluoro-3,4-dihydro-2H,11H-10,6-(azeno)-12,16-(metheno)-1,5,11,13-benzodioxadiazacyclooctadecine] |  | 4.96e-05 |  |  | 3.7 | 168 | Target resident time ([1]; 25° C., Parameters D): 70 min; koff ([1]; 25° C., Parameters D): 0.000237 s⁻¹ |
| CS(=N)(=N)Cc1cc2nc(c1)OCCCOc1cc(F)ccc1-c1cc(ncc1F)N2 [Example 1, 15,19-difluoro-8-[(S-methylsulfonodiimidoyl)methyl]-3,4-dihydro-2H,11H-10,6-(azeno)-12,16-(metheno)-1,5,11,13-benzodioxadiazacyclooctadecine] | > 666 min | < 2.5e-05 |  |  | 2 | 70 | Target resident time ([1]; 25° C., Parameters A): > 333 min; koff ([1]; 25° C., Parameters A): < 5e-05 s⁻¹ |
| CS(=N)(=N)Cc1cc2cc(c1)OCCCCOc1c(ccc(F)c1F)-c1nc(ncc1F)N2 [Example 6, 16,20,21-trifluoro-9-[(S-methylsulfonodiimidoyl)methyl]-2,3,4,5-tetrahydro-12H-13,17-(azeno)-11,7-(metheno)-1,6,12,14-benzodioxadiazacyclononadecine] | 9* min | 0.00188 |  |  | 5.9 | 2118 |  |
| CS(=N)(=N)Cc1cc2cc(c1)OCCCCOc1c(F)cccc1-c1nc(ncc1F)N2 [Example 7, 16,21-difluoro-9-[(S-methylsulfonodiimidoyl)methyl]-2,3,4,5-tetrahydro-12H-13,17-(azeno)-11,7-(metheno)-1,6,12,14-benzodioxadiazacyclononadecine] |  |  |  |  |  | 2132 | Target resident time ([1]; 25° C., Parameters G): 11* min; koff ([1]; 25° C., Parameters G): 0.00154 s⁻¹ |
| CS(=N)(=N)Cc1cc2nc(c1C#N)OCCCOc1cc(F)ccc1-c1cc(ncc1F)N2 [Example 8, 15,19-difluoro-8-[(S-methylsulfonodiimidoyl)methyl]-3,4-dihydro-2H,11H-10,6-(azeno)-12,16-(metheno)-1,5,11,13-benzodioxadiazacyclooctadecine-7-carbonitrile] |  |  |  |  | 1.5 | 252 | Target resident time ([1]; 25° C., Parameters G): 51* min; koff ([1]; 25° C., Parameters G): 0.000326 s⁻¹ |

Second part, led by results:

| Target resident time ([1]; 25° C., Parameters B) | koff ([1]; 25° C., Parameters B) [s⁻¹] | Target resident time ([1]; 25° C., Parameters C) [min] | koff ([1]; 25° C., Parameters C) [s⁻¹] | IC50 [2] [nM] | Selectivity high ATP CDK9 over high ATP CDK2: IC50 (high ATP CDK2)/IC50 (high ATP CDK9) [2] | Structure (SMILES) | other results |
| --- | --- | --- | --- | --- | --- | --- | --- |
|  |  |  |  | 2.3 | 433 | CS(=N)(Cc1cc2cc(c1)OCCCCOc1cc(F)ccc1-c1nc(ncc1F)N2)=NC1CC1 (racemic) [Example 9, (rac)-9-[(N-cyclopropyl-S-methylsulfonodiimidoyl)methyl]-16,20-difluoro-2,3,4,5-tetrahydro-12H-13,17-(azeno)-11,7-(metheno)-1,6,12,14-benzodioxadiazacyclononadecine] | Target resident time ([1]; 25° C., Parameters F): 79* min; koff ([1]; 25° C., Parameters F): 0.000211 s⁻¹ |
|  |  |  |  | 3.4 | 485 | CN=S(C)(=N)Cc1cc2cc(c1)OCCCCOc1cc(F)ccc1-c1nc(ncc1F)N2 (racemic) [Example 10, (rac)-9-[(N,S-dimethylsulfonodiimidoyl)methyl]-16,20-difluoro-2,3,4,5-tetrahydro-12H-13,17-(azeno)-11,7-(metheno)-1,6,12,14-benzodioxadiazacyclononadecine] | Target resident time ([1]; 37° C., Parameters E): 20* min; koff ([1]; 37° C., Parameters E): 0.000833 s⁻¹ |
|  |  | 49 | 0.000338 | 2.1 | 590 | CS(=N)(=N)Cc1cc2cc(c1)OCCCCOc1cc(F)ccc1-c1nc(ncc1F)N2 [Example 5, 16,20-difluoro-9-[(S-methylsulfonodiimidoyl)methyl]-2,3,4,5-tetrahydro-12H-13,17-(azeno)-11,7-(metheno)-1,6,12,14-benzodioxadiazacyclononadecine] | Target resident time ([1]; 25° C., Parameters D): 40 min; koff ([1]; 25° C., Parameters D): 0.000412 s⁻¹; Target resident time ([1]; 37° C., Parameters E): 21* min; koff ([1]; 37° C., Parameters E): 0.000809 s⁻¹ |
